This note sets out measurements from patent publication EP2308983B1, “Cytochrome P450 from Rhizopus oryzae and uses thereof” (Univerza v Ljubljani, priority 2009, dated 2011).

For series [1], the system named is CYP509C12. Description: Steroid hydroxylation assay of recombinant S. pombe strain SpoC12 expressing CYP509C12 (whole-cell biotransformation, HPLC and LC/MS). The note with it: for efficiency of total steroid hydroxylation: 28 °C. As to the method: S. pombe cells, grown as described in the previous section, were washed with EMM, centrifuged (4000 × g, 5 min, 4 °C) and suspended in 10 mL of fresh medium to a final density of 10^8 cells mL^-1. […] 500 µL of SpoC12 yeast culture was taken after different time periods and the steroids were extracted twice with chloroform, evaporated, solved in acetonitrile, and analyzed by HPLC. The steroid extracts from whole cell cultures growing for 24 h were analyzed by LC/MS.
Reverse phase HPLC using an isocratic solvent system of acetonitrile:H2O 60:40 (v/v) as mobile phase, flow rate […], was carried out on a WellChrom system (Knauer, Berlin, Germany) composed of an auto-sampler AS-2050 plus, Mini-Star K-500 pump, Jet Stream II Plus thermostat, and an UV-detector WellChrom Spectro Photometer K-2600, equipped with a C18 ODS Hypersil 250 x 4.6 mm, 5 µm particle column from Thermo® (Waltham, MA, USA). Steroids were detected at 240 nm and the peak area calculation was done using the EuroChrom 2000 software (Knauer). Steroid standards were used to identify the HPLC peaks and to construct calibration curves. Concentrations of steroids were determined using calibration curves in the range of 0.05 -1 mg mL^-1 of each analyte. […] The peak area of a specific steroid at each time point was assessed relative to the total area of identified steroid peaks.
Mass measurements were run on a hybrid quadruple time of flight mass spectrometer (Q-TOF) provided with an orthogonal Z-spray ESI interface (Waters Micromass, Manchester, UK). Mass spectrometer was interfaced to an ultra performance liquid chromatography (UPLC) system based on a Waters Acquity (Waters, Milford, USA) binary pump with a BEH C-18 column (1.7 µm, 50 mm x 2.1 mm i.d.). The mobile phases consisted of water and acetonitrile with mixture of 0.1 % of formic acid in water. Compressed nitrogen (99.999 %, Messer, Slovenia) was used as both the drying and the nebulizing gas. The nebulizer gas flow rate was set to approximately 20 L h^-1 and the desolvation gas flow rate to 600 L h^-1. A cone voltage of 30 V and a capillary voltage of 2.7 kV were used in positive ion mode. The desolvation temperature was set to 250 °C and the source temperature to 150 °C. The mass resolution of approximately 9500 was used for determination of elemental composition with TOF mass spectrometer. Full width of the peak was measured at half of its maximum height. MS were acquired in centroid mode over an m/z range of 50-1000 in scan time 0.25 s and inter scan time 0.05 s. The data station operating software was Mass Lynx v 4.1 (Micromass, Manchester).

The next series has as its system CYP5204A1. Description: Real time RT PCR of P450 gene expression in fungus exposed to progesterone. The note with it: 300 µM progesterone, up-regulated within 20 minutes, Wilcoxon's test p value < 0.05. The series is classed as cell-based, R. oryzae.
The subject of series [2] is CYP509C12. The description is as above. In kind it is cell-based, R. oryzae. The note with it: 300 µM progesterone, up-regulated within 20 minutes, Wilcoxon's test p value < 0.05.
Method: (§1) Samples of 2 µg of RNA were treated with DNAse 1 and reverse-transcribed with random hexamer primers using RevertAid™ H Minus First Strand cDNA Synthesis Kit (Fermentas, Canada) following the manufacturer's instructions. Based on multiple alignments of deduced P450 families, the amplification of the cDNA of 31 P450 genes was carried out under conventional conditions using gene-specific primers which were designed with Primer Express (Applied Biosystems, CA, USA, (AB)). The specificity of each primer pair was verified by sequencing of amplified genomic fragments (Sequiserve, Vaterstetten, Germany).
(§2) Quantitative RT PCR using SYBR green Mastermix (AB) was performed for 9 selected genes in an ABI Prism 7500 Real Time System (AB) according to the manufacturer's instructions. Following amplification, a dissociation curve was performed on all PCR products to additionally ensure their specificity. The relative quantity of cDNA was calculated with the standard curve method and calibrated with a R. oryzae housekeeping Rossb1 gene (Broad ref. RO3G_01864.1), a homologue of the Saccharomyces cerevisiae ribosome-associated Hsp70 (SSB1), whose expression is not affected by steroid treatment. The expression levels of each P450 gene were normalized to those in the untreated control. The statistical significance of up- or down-regulation was evaluated using Wilcoxon's test with a cutoff p-value < 0.05.
In a further series the test system is CYP509C10. As to conditions: 300 µM progesterone, up-regulated within 20 minutes, Wilcoxon's test p value < 0.05.
Setting [3] is: SpoC12, 300 µM steroid, 24 h, LC/MS.

Method for CYP509C10: as §1, §2
Method for CYP5204A1: as §1, §2

In the case of `C[C@]12CC[C@H]3[C@@H](CCC4=CC(=O)CC[C@@]43C)[C@@H]1CC[C@@H]2O` [testosterone], the “efficiency of total steroid hydroxylation” value with CYP509C12 [1] (setting [3]) was 73%.
The same measure, in the same setting: next, `C[C@]12CC[C@H]3[C@@H](CCC4=CC(=O)CC[C@@]43C)[C@@H]1CC[C@@H]2C(=O)CO` [DOC, 11-deoxycorticosterone]: 96%.
Regarding `CC(=O)[C@H]1CC[C@H]2[C@@H]3CCC4=CC(=O)CC[C@]4(C)[C@H]3CC[C@]12C` [progesterone], the “slower rate of progesterone hydroxylation in recombinant fission yeast compared to R. oryzae cultures” value in the series with CYP509C12 [1] (SpoC12 versus R. oryzae cultures) is listed as 10 fold. The “transcript amount increase compared to the control” value in the series with CYP5204A1, in the series with CYP509C12 [2] and in the series on CYP509C10 was “at least 32 fold” in each case.
Take `C[C@]12CCC(=O)C=C1CC[C@@H]1[C@@H]2CC[C@@]2(C)[C@H]1CC[C@]2(O)C(=O)CO` [RSS, 11-deoxycortisol]: in the series with CYP509C12 [1] (setting [3]), the “efficiency of total steroid hydroxylation” value amounted to 30% and the “share of 6β-hydroxylated derivative in total hydroxylated products” value was “more than half”.
